Test results reported in PubChem BioAssay AID1417 (Emory University Molecular Libraries Screening Center, 2008).

target: Induced myeloid leukemia cell differentiation protein Mcl-1 (Homo sapiens) (UniProt Q07820); test: Mcl-1/Noxa binding inhibitor potency, dose response, biochemical, TR-FRET (AID 1417); settings: Mcl-1/Noxa peptide interaction, cell-free TR-FRET (terbium/rhodamine), 2 h; measured here: absolute IC50
Sequence (Q07820 whole entry, looked up): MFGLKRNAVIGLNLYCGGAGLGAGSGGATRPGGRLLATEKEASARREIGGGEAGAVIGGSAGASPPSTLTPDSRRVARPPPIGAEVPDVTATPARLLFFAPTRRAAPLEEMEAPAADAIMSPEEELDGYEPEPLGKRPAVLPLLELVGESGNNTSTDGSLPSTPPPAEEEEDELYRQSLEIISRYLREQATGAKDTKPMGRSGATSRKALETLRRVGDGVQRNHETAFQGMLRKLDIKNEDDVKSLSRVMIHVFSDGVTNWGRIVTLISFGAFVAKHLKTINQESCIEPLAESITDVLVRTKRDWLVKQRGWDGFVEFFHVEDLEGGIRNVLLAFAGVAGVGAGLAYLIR

| Structure (SMILES) | IC50 |
| --- | --- |
| CCN(/N=C/c1ccc(N(C)C)cc1)c1nc2ccccc2[nH]1 | 2.06 µM |
| COc1ccc(/C=C2/C(=O)N(c3nc4ccccc4s3)N=C2CSc2ccc(Cl)cc2)cc1 | < 0.4 µM |
| O=C(CSc1nc2ccccc2s1)Nc1cc(S(=O)(=O)N2CCOCC2)ccc1O | 0.722 µM |
| CC1CCCCC1NC(=O)c1ccc2c(c1)[nH]c(=O)n2C1CCCC1 (stereo not drawn) | > 54 µM |
| CCn1nc([N+](=O)[O-])c(C(C#N)c2nc3cc(C(F)(F)F)ccc3s2)c(Cl)c1=O (stereo not drawn) | 3.15 µM |
| COC(=O)c1ccc(CSc2nc(-c3ccccc3)cs2)o1 | > 54 µM |
| CCCCNC(=O)c1ccc2nc(-c3ccco3)c(-c3ccco3)nc2c1 | < 0.4 µM |
| Oc1ccc(/C=N/N=C(c2ccccc2)c2ccccc2)c(O)c1O | < 0.4 µM |
| CN(C)c1ccc(Sc2nnc(NC(=O)Nc3ccc(Cl)cc3Cl)s2)cc1 | 3.46 µM |
| Cc1ccc2nc(/C(C#N)=C/c3ccc(-c4cccc([N+](=O)[O-])c4)o3)[nH]c2c1 | 1.68 µM |
| CS(=O)(=O)c1ccc(C(=O)NCCN2C(=O)S/C(=C\c3cccnc3)C2=O)cc1[N+](=O)[O-] | 3.15 µM |
| Cc1ccc2c(c1)C1CN(C)CCC1N2C(=O)Nc1cccc(Cl)c1 (stereo not drawn) | > 54 µM |
| CCOC(=O)c1c(C)oc2c1c(C(c1ccncc1)N1CCOCC1)c(O)c1ccccc12 (stereo not drawn) | < 0.4 µM |
| O=C1NC(=O)N(Cc2ccco2)C(=O)/C1=C/c1ccc(-c2cccc([N+](=O)[O-])c2)o1 | 3.28 µM |
| C=C(C)C(=O)Nc1cccc(C2=NOC3(C2)C[C@@H](C(N)=O)N(C(=O)/C(C)=C/C)C3)c1 (stereo partly drawn) | > 54 µM |
| N=C1CCC(=N)c2c1c(O)c1ccccc1c2O | > 54 µM |
| Cc1c(Cl)cnc(NC(=O)COC(=O)c2ccc([N+](=O)[O-])s2)c1Cl | 7.01 µM |
| O=c1/c(=C\c2cc([N+](=O)[O-])cc([N+](=O)[O-])c2O)sc2nc3ccccc3n12 | < 0.4 µM |
| O=C(O)c1ccc(-n2cccc2/C=C2/NC(=O)N(c3ccccc3)C2=O)cc1 | 3.33 µM |
| CCNc1ccc(Br)cc(C(=O)/C=C/c2ccc(Cl)cc2)c1=O | 2.03 µM |
| COC(=O)N/N=C/c1cc(N=Nc2ccccc2Cl)ccc1O | 3.74 µM |
| O=[N+]([O-])c1cccc(S(=O)(=O)Nc2nc3ccccc3nc2Nc2cccc(S(=O)(=O)N3CCCCC3)c2)c1 | 3.75 µM |
| O=C(N/N=C/c1ccc(O)cc1)c1cccc(N/N=C/c2ccc(O)cc2)c1 | 2.05 µM |
| C=CCSC1=N/C(=C\C=C\c2ccco2)C(=O)S1 | 5.07 µM |
| Cn1cnnc1SCC(=O)Nc1sc2c(c1C(N)=O)CCC2 | 1.81 µM |
| Cc1nnc(NC(=O)c2sc3nc(-c4cccs4)cc(C(F)(F)F)c3c2N)s1 | 1.6 µM |
| O=C(O)C1Nc2c(C(=O)N3CCOCC3)cccc2C2C=CCC12 (stereo not drawn) | > 54 µM |

| Structure (SMILES) | IC50 |
| --- | --- |
| CCOc1cc(/C=N/NC(=O)c2ccc(-c3csc(Nc4ccc(C)cc4)n3)cc2)ccc1OCC(=O)O | 1.07 µM |
| COc1cc(/C=N/Nc2nc(C)nc3c2cnn3-c2ccccc2)ccc1O | 13.3 µM |
| CCc1ccc2nc3sc(C(=O)Nc4nnc(CC)s4)c(N)c3cc2c1 | > 54 µM |
| O=C(O)c1cccc(N/N=C/C2=C(Cl)c3cc(Cl)ccc3SC2)c1 | 4.33 µM |
| CC(=O)NC1=C(NC2CCS(=O)(=O)C2)C(=O)c2ccccc2C1=O (stereo not drawn) | 2.77 µM |
| Cc1nn(CC(=O)Nc2ccc(N(C)C)cc2)c(C)c1[N+](=O)[O-] | > 54 µM |
| Cc1ccc(-c2nn(-c3ccccc3)cc2/C=C2\SC(=S)N(CC(=O)O)C2=O)cc1 | 4.63 µM |
| CCOC(=O)c1sc(NC(=O)Nc2ccc(Cl)cc2)cc1C | 4.11 µM |
| COc1ccc2c(c1)c1ccc3c(c1n2C)C(=O)C=CC3=O | < 0.4 µM |
| O=C(O)c1ccc(N/N=C/C2=C(N3CCOCC3)C(=C\c3ccccc3)/CC2)cc1 | 2.02 µM |
| Cc1ccc(CNC(=O)c2ccc3c(=O)[nH]c4c(C(=O)NCC5CCCO5)sc(=S)n4c3c2)cc1 (stereo not drawn) | 11.1 µM |
| N[C@@H](Cc1cc(I)c(Oc2ccc(O)c(I)c2)c(I)c1)C(=O)O | < 0.4 µM |
| CCC1=NNc2cccc3c(OC)ccc1c23 | > 54 µM |
| CC(C)CC1NC(=O)N(CC(=O)N2c3ccccc3NC(=O)C2(C)C)C1=O (stereo not drawn) | > 54 µM |
| COc1ccc(N2CCC(CNS(=O)(=O)c3cccc(C(F)(F)F)c3)C2)cc1 (stereo not drawn) | < 0.4 µM |
| CS(=O)(=O)c1ccc2c(c1)SC1=NC(=O)/C(=C/c3ccco3)C(=N)N12 | 2.19 µM |
| Cc1ccc(C(C)C)c(OCc2ccc(C(=O)N/N=C/c3ccc(O)cc3O)cc2)c1 | 13.3 µM |
| CCC1CCCCN1S(=O)(=O)c1ccc(S(=O)(=O)N(Cc2ccccn2)CC2CCCO2)cc1 (stereo not drawn) | > 54 µM |
| CC(/C=C1\SC(=S)N(NS(=O)(=O)c2ccccc2)C1=O)=C\c1ccccc1 | 17.9 µM |
| Cc1cc(NS(=O)(=O)c2ccc(Nc3nc(-c4sc(NC(=O)c5ccccc5)nc4C)cs3)cc2)no1 | 1.77 µM |
| NS(=O)(=O)c1ccc(NC(=S)NC(=O)/C=C/c2ccco2)cc1 | 6.75 µM |
| Cc1c(Cc2ccccc2)c(NCCN(C)C)n2c(nc3ccccc32)c1C#N | 1.91 µM |
| O=[N+]([O-])c1cccc(N/N=C/c2cc([N+](=O)[O-])ccc2O)c1 | 0.428 µM |
| CN(C)c1ccc(CC(=O)c2nc3ccccc3s2)cc1 | 3.19 µM |
| O=C(N=Nc1c(O)[nH]c2ccc([N+](=O)[O-])cc12)c1cc(-c2ccccc2Cl)nc2ccccc12 | < 0.4 µM |
| COc1cc(/C=C2\CC/C(=C\c3cc(OC)c(O)c(OC)c3)C2=O)cc(OC)c1O | < 0.4 µM |
